Results: patent publication US20030199530A1, “New compounds derived from quinazoline” (priority 2002, published 2003)

Columns and labels:
[1] = test system: cells transfected with v-H-ras; assay: Cell proliferation test (MTT) on RAT2 fibroblasts transfected with v-H-ras; assay type: cell-based; details: Rattus norvegicus, 96 h, RAT2 transfectant, 10% serum, four days, read-out: IC50 of inhibition of growth of cells transfected by the oncogene v-H-ras
Method: a) The RAT2 line of rat fibroblasts and an appropriate transfectant for the insertion of the gene v-H-ras were used to test the effectiveness of the claimed products on cells.
The parental and transfected cells are cultured in 96-well plates for cell culture in the presence of medium containing 10% serum. Twenty four hours later, the test products are added to the same medium over a period of four days and the final quantity of cells is estimated indirectly by the cell viability method using 3-(4,5-dimethylthiazol-2-yl)-2,5-diphenyltetrazolium bromide (MTT).

[2] = target: T1, FTase (Rattus norvegicus, UniProt Q02293+Q04631); assay: FTase enzyme test (scintillation proximity assay); assay type: biochemical; details: rat brain FTase, biotinylated lamin B peptide, [3H]farnesyl pyrophosphate, 37° C., one hour; read-out: IC50 with respect to FTase
T1 construct: The two enzymes FTase and GGTase-I were purified starting from rat's brain; from tissue; host or cells: rat brain
Method: The two enzymes FTase and GGTase-I were purified starting from rat's brain. After grinding and centrifuging, the supernatant is precipitated with 30% ammonium sulphate and the resulting supernatant is subjected to another precipitation with 50% ammonium sulphate. The pellet is then passed through a column of phenyl agarose and the fractions collected after elution with sodium chloride are evaluated for their enzyme content in accordance with the “scintillation proximity assay” method described hereinbelow. The fractions corresponding to one or other of the two enzymes are then combined and frozen at −80° C. until use.
The determination of the enzymatic activity of the FTase is carried out in 96-well plates by a radioactive scintillation proximity assay method. The acceptor substrate composed of the carboxy terminal sequence of lamin B (YRASNRSCAIM) coupled to biotin is incubated in the presence of the radiolabelled donor substrate ([^3H]farnesyl pyrophosphate), and of various concentrations of test compounds in dimethyl sulphoxide (DMSO). The reaction is initiated at 37° C. by adding FTase enzyme for a duration of one hour, and is then stopped with an appropriate buffer containing a suspension of beads impregnated with scintillant. […]

Structure (SMILES): CC(C)(C)OC(=O)Nc1ccc(-n2c(=O)c3ccccc3n(CC(Cc3ccccc3)Cn3ccnc3)c2=O)cc1 (centres unmarked) [Example 2, tert-Butyl 4-(1-[2-benzyl-3-(1H-imidazol-1-yl)propyl]-2,4-dioxo-1,4-dihydro-3(2H)-quinazolinyl)phenylcarbamate]
- IC50 [1]: 9 nM
- IC50 [2]: 19 nM
